Experimental data from US20040142910A1, “Sulfonated styrene copolymers for medical uses” (Aegis Biosciences LLC, priority 2002, published 2004).

What was measured:
[1] = system: Human umbilical vein ECs (HUVECs); test: endothelial cell proliferation in the absence of fibrin; type: cell-based; conditions: SNAP 0.1 and 0.4 mmol/L
Procedure: (§1) Angiogenesis is a complex process that involves the activation of quiescent endothelial cells (ECs) to a proliferative and migratory phenotype and, subsequently, their redifferentiation to form vascular tubes. We hypothesized that NO contributes to angiogenesis by terminating the proliferative action of angiogenic growth factors and initiating a genetic program of EC differentiation. Human umbilical vein ECs (HUVECs) and calf pulmonary artery ECs (CPAECs) were grown directly on plastic dishes or on three-dimensional fibrin matrices. […] The addition of basic fibroblast growth factor (bFGF, […]) increased the expression of endothelial NO synthase mRNA and the production of NO in both cell types when cultured on three-dimensional fibrin gels and produced profound morphological changes characterized by the appearance of extensive capillary-like vascular structures and the loss of EC monolayers. These changes were quantified by measuring total tube length per low-power field (X 100), and a differentiation index was derived using the ratio of tube length over area covered by residual EC monolayer. In the absence of additional angiogenic factors, the differentiation index was low for both HUVECs and CPAECs (control, 1.16plus or minus0.19 and 2.07plus or minus0.87, respectively).

[2] = system: calf pulmonary artery ECs (CPAECs); test: as above; type: cell-based; conditions: SNAP 0.1 and 0.4 mmol/L, L-NAME, L-NMMA 1 mmol/L
Procedure: as §1

[3] = system: endothelial cells (ECs); test: EC tube formation in response to bFGF; type: cell-based
Procedure: as §1

[4] = treatment of asthma; cited from earlier work
[5] = system: Human umbilical vein ECs (HUVECs); test: EC differentiation on three-dimensional fibrin gels; type: cell-based; conditions: bFGF 30 ng/nL
Procedure: as §1

[6] = system: calf pulmonary artery ECs (CPAECs); test: as above; type: cell-based; conditions: bFGF 30 ng/nL
Procedure: as §1

CC(=O)N[C@H](C(=O)O)C(C)(C)SN=O (racemic) [SNAP, S-nitroso-N-acetylpenicillamine]
proliferation [1]: dose-dependent inhibition
proliferation [2]: dose-dependent inhibition

COC(=O)[C@@H](N)CCCNC(=N)N[N+](=O)[O-] [L-NAME, N(G)-nitro-L-arginine methyl ester]
EC tube formation in response to bFGF [3]: inhibited EC tube formation
proliferation [2]: significantly increased

CNC(=N)NCCC[C@H](N)C(=O)O [L-NMMA, N(G)-monomethyl-L- arginine]
proliferation [2]: significantly increased

Cn1c(=O)c2[nH]cnc2n(C)c1=O [theophylline]
minimum effective blood concentrations [4]: 6 to 10 µg/mL

bFGF: basic fibroblast growth factor
expression of endothelial NO synthase mRNA and production of NO [5]: increased
expression of endothelial NO synthase mRNA and production of NO [6]: increased
